Laboratory results: US20190276481A1, “Liver Prodrugs of Mitochondrial Proton Ionophores” (NEUROVIVE PHARMACEUTICAL AB, priority 2016, published 2019)

Tests used:
[1] = system: isolated rat liver mitochondria; assay: Uncoupling potential in isolated mitochondria (free mitochondrial uncoupling, oxygraph respiration); format: biochemical; settings: fixed concentrations, vs DMSO control, FIGS. 1, 2, 4-6
Procedure: The potency of mitochondrial uncoupling without prodrug metabolism may be tested as follows:
Isolated rat liver mitochondria are prepared according to Hansson et al (Hansson et al (Brain Res. 2003 Jan. 17; 960(1-2):99-111.). Respiration is measured at a constant temperature of 37° C. in a high-resolution oxygraph (Oxygraph-2k Oroboros Instruments, Innsbruck, Austria) in 2 ml glass chambers with stirrer speed 750 rpm. Data is recorded with DatLab software (Oroboros Instruments, Innsbruck, Austria) with sampling rate set to 2 s at an oxygen concentration in the range of 210-50 μM O2. If necessary, reoxygenation is performed by partially raising the chamber stopper for a brief air equilibration. Instrumental background oxygen flux is measured in a separate set of experiments and automatically corrected for in the ensuing experiments according to the manufacturer's instructions. To measure respiration of isolated mitochondria, samples are suspended in a mitochondrial respiration medium (MiR05) containing sucrose 110 mM, HEPES 20 mM, taurine 20 mM, K-lactobionate 60 mM, MgCl2 3 mM, KH2PO4 10 mM, EGTA 0.5 mM, BSA 1 g/l, pH 7.1. After reaching stabilized respiration in the presence of substrates (malate (5 mM), glutamate (5 mM), pyruvate (5 mM) and succinate (10 mM)), state 3 respiration is induced by supplementation with ADP (1 mM) followed by addition of oligomycin (1 μg/ml, ATP-synthase inhibitor) causing state 4O. State 4O is a respiratory state dependent on the back-flux of protons across the mitochondrial membrane due to inhibition of the ATP-synthase and in the presence of saturating substrate concentrations and ADP. Drug candidates and their respective payloads of known protonophores are given at fixed concentrations to induce uncoupled respiration. Rotenone (2 μM, complex I [CI] inhibitor), antimycin-A (1 μg/ml, complex III [CIII] inhibitor) and sodium azide (10 mM) are then added to inhibit the ETS providing the residual, non-mitochondrial oxygen consumption which all respiratory values are corrected for.

[2] = Relative liver exposure vs extra-hepatic organs: salicylanilide levels after oral dosing; format: in vivo; settings: CD-1 mice
Procedure: For example, mice or rats are dosed with 1 or 3 mg/kg of the compound of the invention i.v. or 1, 5 or 10 mg/kg of the compound of the invention p.o. Blood samples are taken at 5 min, 15 min, 1 h, 4 h and 24 h intervals, and the concentration of the compound of the invention in the sample is determined via LCMS-MS. The time-course of plasma or whole blood concentrations can then be used to derive key parameters such as the area under the plasma or blood concentration-time curve (AUC—which is directly proportional to the total amount of unchanged drug that reaches the systemic circulation), the maximum (peak) plasma or blood drug concentration, the time at which maximum plasma or blood drug concentration occurs (peak time), additional factors which are used in the accurate determination of bioavailability include: the compound's terminal half-life, total body clearance, steady-state volume of distribution and F %.
As it is advantageous to have an increased ratio of liver uncoupling versus extra hepatic uncoupling, 3 mg/kg salicylanilide or 10 mg/kg compound 14 or 10 mg/kg compound 23 (which releases salicylanilide) were dosed orally to CD-1 mice and levels of salicylanilide were measured in blood, muscle and liver samples before and after dosing (see general methods). The ratio of liver vs extra-hepatic salicylanilide was then assessed, with a high ratio desirable, as this is anticipated to lead to reduced off-target uncoupling and toxicity.

[3] = Caco-2 permeability assay; format: in vitro ADME; settings: human
Procedure: (§1) The permeability coefficient (Papp) is calculated from the following equation:
(§2) Where dQ/dt is the amount of compound in basal (A-B) or apical (B-A) compartment as a function of time (nmol/s). C0 is the initial concentration in the donor (apical or basal) compartment (Mean of T=0) (nmol/mL) and A is the area of the transwell (cm^2).
(§3) The efflux ratio is then calculated as: […]
(§4) Cell permeability may be tested as follows: The test compound is dissolved to 10 mM in DMSO and then diluted further in buffer to produce a final 10 μM dosing concentration. The fluorescence marker lucifer yellow is also included to monitor membrane integrity. Test compound is then applied to the apical (A) surface of Caco-2 cell monolayers and compound permeation into the basolateral (B) compartment is measured. This is performed in the reverse direction (basolateral to apical) to investigate active transport (efflux). LC-MS/MS is used to quantify levels of both the test and standard control compounds (such as Propanolol and Acebutolol).

Caco-2 cell monolayers = assay: Caco-2 permeability assay; format: in vitro ADME
Procedure: as §1, §2, §3, §4

HepG2 cells = assay: Mitochondrial uncoupling assay in intact HepG2 liver cells; format: cell-based; settings: FIG. 3
Procedure: (§5) For respiration measurements in HepG2 cells and platelets, cells are suspended in a mitochondrial respiration medium MiR05 at 37° C. in a high-resolution oxygraph (Oxygraph-2k Oroboros Instruments, Innsbruck, Austria). […] To evaluate the contribution of respiration independent of ADP phosphorylation, oligomycin (1 μg/ml, ATP-synthase inhibitor) is sequentially added inducing LEAK respiration state (a respiratory state where oxygen consumption is dependent on the back-flux of protons across the mitochondrial membrane). Drug candidates and known protonophores are carefully titrated to induce maximal uncoupled respiration/maximal rate of the ETS (electron transport system) at endogenous substrate supply and continued until a decrease or at least no further increase of uncoupled respiration is observed. Rotenone (2 μM, complex I [CI] inhibitor) and antimycin-A (1 μg/ml, complex III [CIII] inhibitor) are then added to inhibit the ETS, thus providing the residual, non-mitochondrial oxygen consumption, which all values were corrected for.
(§6) The potency of mitochondrial uncoupling with prodrug metabolism be tested as follows: • a) HepG2 cells (to simulate uncoupling with liver cell metabolism) • b) Platelets (to simulate uncoupling in blood)

[4] = system: HepG2 cells (hepatic) vs platelets (extra-hepatic); assay: In vitro uncoupling in HepG2 cells (hepatic) vs platelets (extra-hepatic); format: cell-based; settings: high maximal uncoupling at low concentrations in HepG2 cells; FIGS. 7-12
Procedure: as §5, §6
It is advantageous to have an increased level of uncoupling in hepatic tissue as compared to extra-hepatic tissue. To test for this, compounds were tested in an in vitro uncoupling assay (see Assays for evaluating mitochondrial uncoupling in intact liver cells and platelets in general methods) in HepG2 cells (hepatic) vs platelets (extra-hepatic).

[5] = Hsaio et al., 2005; cited from earlier work

CC(C)OC(=O)[C@H](C)NP(=O)(N[C@@H](C)C(=O)OC(C)C)OCOc1ccc([N+](=O)[O-])cc1[N+](=O)[O-] [Compound 2]
uncoupling in isolated mitochondria (without prodrug metabolism) [1]: reduced, little or no uncoupling

O=C(Nc1ccccc1)c1ccccc1O [Salicylanilide, 2-Hydroxy-N-phenylbenzamide]
ratio of liver to extra-hepatic exposure (in words) [2]: desirable ratios of liver to extra-hepatic exposure | efflux ratio [3]: 0.8 | Papp A→B ([3]; apical to basolateral): 39.5 ×10⁻⁶ cm/s | Papp B→A ([3]; basolateral to apical): 33 ×10⁻⁶ cm/s | Caco-2 efflux ratio compared to DNP (in words) (Caco-2 cell monolayers): reduced efflux ratio | Caco-2 permeability compared to DNP (in words) (Caco-2 cell monolayers): increased permeability | maximal uncoupling effect compared to DNP (HepG2 cells): lesser maximal uncoupling effect | uncoupling potency compared to DNP (HepG2 cells): more potent compared to DNP

COP(=O)(N[C@@H](C)C(=O)OC(C)C)OCOc1ccc([N+](=O)[O-])cc1[N+](=O)[O-] (stereo partly shown) [Compound 1]
uncoupling in isolated mitochondria (without prodrug metabolism) [1]: reduced, little or no uncoupling

C[C@H](NP(=O)(N[C@@H](C)C(=O)OCC(C)(C)C)OCOc1ccccc1C(=O)Nc1ccccc1)C(=O)OCC(C)(C)C [Compound 23]
ratio of liver to extra-hepatic exposure (in words) [2]: desirable ratios of liver to extra-hepatic exposure | uncoupling in isolated mitochondria (without prodrug metabolism) [1]: reduced, little or no uncoupling | selectivity of uncoupling, HepG2 cells vs platelets [4]: selective uncoupling in HepG2 cells as compared to platelets

C[C@H](NP(=O)(N[C@@H](C)C(=O)OCC(C)(C)C)OCOc1ccc([N+](=O)[O-])cc1)C(=O)OCC(C)(C)C [Compound 9]
uncoupling in isolated mitochondria (without prodrug metabolism) [1]: reduced, little or no uncoupling | selectivity of uncoupling, HepG2 cells vs platelets [4]: selective uncoupling in HepG2 cells as compared to platelets

CC(C)OC(=O)[C@H](C)NP(=O)(N[C@@H](C)C(=O)OC(C)C)OCOc1ccc(Cl)cc1C(=O)Nc1ccc([N+](=O)[O-])cc1Cl [Compound 6]
uncoupling in isolated mitochondria (without prodrug metabolism) [1]: reduced, little or no uncoupling | selectivity of uncoupling, HepG2 cells vs platelets [4]: selective uncoupling in HepG2 cells as compared to platelets

COP(=O)(N[C@@H](C)C(=O)OC(C)C)OCOc1ccc(Cl)cc1C(=O)Nc1ccc([N+](=O)[O-])cc1Cl (stereo partly shown) [Compound 18]
uncoupling in isolated mitochondria (without prodrug metabolism) [1]: reduced, little or no uncoupling | selectivity of uncoupling, HepG2 cells vs platelets [4]: selective uncoupling in HepG2 cells as compared to platelets

CC(C)OC(=O)[C@H](C)NP(=O)(N[C@@H](C)C(=O)OC(C)C)OCOc1ccc([N+](=O)[O-])cc1 [Compound 4]
uncoupling in isolated mitochondria (without prodrug metabolism) [1]: reduced, little or no uncoupling

CC(C)OC(=O)[C@H](Cc1ccccc1)NP(=O)(N[C@@H](Cc1ccccc1)C(=O)OC(C)C)OCOc1ccc([N+](=O)[O-])cc1[N+](=O)[O-] [Compound 11]
uncoupling in isolated mitochondria (without prodrug metabolism) [1]: reduced, little or no uncoupling | selectivity of uncoupling, HepG2 cells vs platelets [4]: selective uncoupling in HepG2 cells as compared to platelets

O=[N+]([O-])c1ccc(O)c([N+](=O)[O-])c1 [DNP, 2,4 dinitrophenol]
uncoupling in isolated mitochondria (without prodrug metabolism) [1]: potent uncoupling | acute administration that can be lethal [5]: 20-50 mg/kg body weight | efflux ratio at 10 µM [3]: 1.1 | Papp A→B at 10 μM ([3]; apical to basolateral): 24 ×10⁻⁶ cm/s | Papp B→A at 10 μM ([3]; basolateral to apical): 27 ×10⁻⁶ cm/s

CC(C)OC(=O)[C@H](Cc1ccccc1)NP(=O)(N[C@@H](Cc1ccccc1)C(=O)OC(C)C)OCOc1ccccc1C(=O)Nc1ccccc1 [Compound 14]
ratio of liver to extra-hepatic exposure (in words) [2]: desirable ratios of liver to extra-hepatic exposure | Salicylanilide in blood after 1 h ([2]; 3 mg/kg salicylanilide or 10 mg/kg compound 14 or 23): BQL | uncoupling in isolated mitochondria (without prodrug metabolism) [1]: reduced, little or no uncoupling | selectivity of uncoupling, HepG2 cells vs platelets [4]: selective uncoupling in HepG2 cells as compared to platelets
